Results from patent US7285564B2, “Substituted 4-amino-1-(pyridylmethyl)piperidine and related compounds” (Theravance, Inc., priority 2002, dated 2007).

How the values were obtained:
[1] = test system: volume-induced bladder contractions; test: In vivo rat bladder assay; conditions: intravenous; anesthetized female Sprague-Dawley rats; normalized to atropine response
Description: Female Sprague-Dawley rats (Harlan, Indianapolis, Ind.) weighing 200 to 300 g were anesthetized with urethane (1.5 g/kg, s.c., Sigma, St. Louis, Mo.), with a supplement of 0.25 g/kg, s.c. urethane as needed. Urethane was administered at a concentration of 0.25 g/mL.
Rats were prepared for surgery by shaving the neck and abdomen and cleansing with ethanol wipes. First, an incision was made on the ventral surface. An intravenous catheter was placed by isolating and ligating the femoral vein. […]
Thereafter, an intravenous dose of the test compound was administered and changes in VIBCAmp were recorded for 15 minutes. Atropine (0.1 mg/kg) was then administered intravenously (1 mL/kg) as a positive control and VIBCAmp and data was recorded for an additional 15 minutes. […]
Alternatively, after the vehicle, increasing cumulative intravenous doses of the test compound were administered at 15 minute intervals (1 mL/kg) and changes in VIBCAmp were recorded for 15 minutes. […]
The average VIBCAmp during the 5-15 minute period after test compound and atropine was determined and subtracted from the average VIBCAmp during the 5-15 minute post-vehicle period to obtain the test compound or atropine-induced change in VIBCAmp. […]

[2] = test system: oxotremorine-induced salivation; test: In vivo rat salivation assay
Description: Female Sprague-Dawley rats weighing 200 to 300 g were anesthetized with urethane (1.5 g/kg, s.c., Sigma, St. Louis, Mo.), with a supplement of 0.25 g/kg, s.c. urethane as needed. Urethane was administered at a concentration of 0.25 g/mL.
Rats were placed on a heated blanket on their dorsal side in an inclined position (20° angle) position (head down). A swab was placed in the rat's mouth. The test compound or vehicle was administered intravenously via the tail vein. After 5 min., oxotremorine (1.0 mg/kg) was administered subcutaneously. The swab was discarded and
Replaced by a pre-weighed swab. Saliva was then collected for 10 min. and then the swab was removed and re-weighed to determine the output of saliva. Dose-response curves were fitted with a four parameter logistic equation to obtain estimates of ID50 (dose required to produce 50% of the maximal response).
By comparing the ID50 values determined in the rat bladder assay and rat salivation assay, the in vivo bladder/salivation selectivity ratio was calculated for the compounds tested.

SMILES: COc1ccncc1CN1CCC(N(CCCCCCCN2CC[C@@H](C(C(N)=O)(c3ccccc3)c3ccccc3)C2)C(C)C)CC1 [Example 1]
- ID50 (volume-induced bladder contraction amplitude) [1]: less than or equal to 0.1 mg/kg
- ID50 (salivation) ([2]; intravenous, anesthetized female Sprague-Dawley rats, oxotremorine 1.0 mg/kg s.c.): greater than or equal to 0.9 mg/kg
- ID50 bladder/salivation selectivity ratio ([2]; rat bladder assay vs rat salivation assay): greater than 20
